{"source": "ChEMBL document CHEMBL3885881", "about": "“DrugMatrix”", "species_on_record": "Rattus norvegicus", "type": "toxicity, organism-based, Sprague-Dawley", "details": "in vivo, po, 24 h, route oral GAVAGE, time 1 day, […]; for ABSOLUTE BASOPHIL / ABSOLUTE EOSINOPHIL / ABSOLUTE LYMPHOCYTE / ABSOLUTE MONOCYTE / BASOPHIL / EOSINOPHIL / ERYTHROCYTE COUNT / HEMATOCRIT / HEMOGLOBIN / LEUKOCYTE COUNT / LYMPHOCYTE / MEAN CORPUSCULAR HEMOGLOBIN / MEAN CORPUSCULAR HEMOGLOBIN CONCENTRATION / MEAN CORPUSCULAR VOLUME / MONOCYTE / NEUTROPHIL / PLATELET COUNT: tissue Blood; for ALANINE AMINOTRANSFERASE / ALBUMIN / ALKALINE PHOSPHATASE / ASPARTATE AMINOTRANSFERASE / BLOOD UREA NITROGEN / CARBON DIOXIDE / CHLORIDE / CHOLESTEROL / CREATINE PHOSPHOKINASE / CREATININE / GLUCOSE / LACTATE DEHYDROGENASE / LIPASE / PHOSPHORUS / POTASSIUM / SODIUM / TOTAL BILIRUBIN / TOTAL PROTEIN / URIC ACID: tissue Plasma", "key": {"[1]": {"details": "0 mg/kg, vehicle control, dose level Control"}}, "description": "DrugMatrix - Regimen: Single", "data": [{"smiles": "Clc1ccc(Cl)cc1", "note": "[1,4-DICHLOROBENZENE]", "values": [{"measurement": "ABSOLUTE BASOPHIL", "setting": "[1]", "value": 46.7, "unit": "cells/µL"}, {"measurement": "ABSOLUTE EOSINOPHIL", "setting": "[1]", "value": 130, "unit": "cells/µL"}, {"measurement": "ABSOLUTE LYMPHOCYTE", "setting": "[1]", "value": 8720, "unit": "cells/µL"}, {"measurement": "ABSOLUTE MONOCYTE", "setting": "[1]", "value": 140, "unit": "cells/µL"}, {"measurement": "BASOPHIL", "setting": "[1]", "value": 0.43, "unit": "%"}, {"measurement": "EOSINOPHIL", "setting": "[1]", "value": 1.33, "unit": "%"}, {"measurement": "ERYTHROCYTE COUNT", "setting": "[1]", "value": 6.45, "unit": "x10E6/uL"}, {"measurement": "HEMATOCRIT", "setting": "[1]", "value": 42.2, "unit": "%"}, {"measurement": "HEMOGLOBIN", "setting": "[1]", "value": 13.33, "unit": "G/DL"}, {"measurement": "LEUKOCYTE COUNT", "setting": "[1]", "value": 10.59, "unit": "x10E3/uL"}, {"measurement": "LYMPHOCYTE", "setting": "[1]", "value": 82.13, "unit": "%"}, {"measurement": "MEAN CORPUSCULAR HEMOGLOBIN", "setting": "[1]", "value": 20.67, "unit": "pg"}, {"measurement": "MEAN CORPUSCULAR HEMOGLOBIN CONCENTRATION", "setting": "[1]", "value": 31.6, "unit": "G/DL"}, {"measurement": "MEAN CORPUSCULAR VOLUME", "setting": "[1]", "value": 65.4, "unit": "fL"}, {"measurement": "MONOCYTE", "setting": "[1]", "value": 1.37, "unit": "%"}, {"measurement": "NEUTROPHIL", "setting": "[1]", "value": 14.3, "unit": "%"}, {"measurement": "PLATELET COUNT", "setting": "[1]", "value": 1048.67, "unit": "x10E3/uL"}, {"measurement": "ALANINE AMINOTRANSFERASE", "setting": "[1]", "value": 44, "unit": "u/L"}, {"measurement": "ALBUMIN", "setting": "[1]", "value": 3.93, "unit": "G/DL"}, {"measurement": "ALKALINE PHOSPHATASE", "setting": "[1]", "value": 551.33, "unit": "u/L"}, {"measurement": "ASPARTATE AMINOTRANSFERASE", "setting": "[1]", "value": 97, "unit": "u/L"}, {"measurement": "BLOOD UREA NITROGEN", "setting": "[1]", "value": 13.5, "unit": "mg/dL"}, {"measurement": "CARBON DIOXIDE", "setting": "[1]", "value": 37.33, "unit": "mmol/L"}, {"measurement": "CHLORIDE", "setting": "[1]", "value": 102.33, "unit": "MEQ/L"}, {"measurement": "CHOLESTEROL", "setting": "[1]", "value": 83, "unit": "mg/dL"}, {"measurement": "CREATINE PHOSPHOKINASE", "setting": "[1]", "value": 365.33, "unit": "u/L"}, {"measurement": "CREATININE", "setting": "[1]", "value": 0.4, "unit": "mg/dL"}, {"measurement": "GLUCOSE", "setting": "[1]", "value": 189, "unit": "mg/dL"}, {"measurement": "LACTATE DEHYDROGENASE", "setting": "[1]", "value": 170.33, "unit": "u/L"}, {"measurement": "LIPASE", "setting": "[1]", "value": 10.67, "unit": "u/L"}, {"measurement": "PHOSPHORUS", "setting": "[1]", "value": 11.53, "unit": "mg/dL"}, {"measurement": "POTASSIUM", "setting": "[1]", "value": 5.63, "unit": "MEQ/L"}, {"measurement": "SODIUM", "setting": "[1]", "value": 144.33, "unit": "MEQ/L"}, {"measurement": "TOTAL BILIRUBIN", "setting": "[1]", "value": 0.4, "unit": "mg/dL"}, {"measurement": "TOTAL PROTEIN", "setting": "[1]", "value": 6.27, "unit": "G/DL"}, {"measurement": "URIC ACID", "setting": "[1]", "value": 0.87, "unit": "mg/dL"}, {"measurement": "ABSOLUTE BASOPHIL", "setting": "900 mg/kg, dose level High", "value": 10, "unit": "cells/µL"}, {"measurement": "ABSOLUTE EOSINOPHIL", "setting": "900 mg/kg, dose level High", "value": 23.3, "unit": "cells/µL"}, {"measurement": "ABSOLUTE LYMPHOCYTE", "setting": "900 mg/kg, dose level High", "value": 4230, "unit": "cells/µL"}, {"measurement": "ABSOLUTE MONOCYTE", "setting": "900 mg/kg, dose level High", "value": 80, "unit": "cells/µL"}, {"measurement": "BASOPHIL", "setting": "900 mg/kg, dose level High", "value": 0.2, "unit": "%"}, {"measurement": "EOSINOPHIL", "setting": "900 mg/kg, dose level High", "value": 0.5, "unit": "%"}, {"measurement": "ERYTHROCYTE COUNT", "setting": "900 mg/kg, dose level High", "value": 6.97, "unit": "x10E6/uL"}, {"measurement": "HEMATOCRIT", "setting": "900 mg/kg, dose level High", "value": 46.93, "unit": "%"}, {"measurement": "HEMOGLOBIN", "setting": "900 mg/kg, dose level High", "value": 15, "unit": "G/DL"}, {"measurement": "LEUKOCYTE COUNT", "setting": "900 mg/kg, dose level High", "value": 5.04, "unit": "x10E3/uL"}, {"measurement": "LYMPHOCYTE", "setting": "900 mg/kg, dose level High", "value": 83.5, "unit": "%"}, {"measurement": "MEAN CORPUSCULAR HEMOGLOBIN", "setting": "900 mg/kg, dose level High", "value": 21.5, "unit": "pg"}, {"measurement": "MEAN CORPUSCULAR HEMOGLOBIN CONCENTRATION", "setting": "900 mg/kg, dose level High", "value": 31.97, "unit": "G/DL"}, {"measurement": "MEAN CORPUSCULAR VOLUME", "setting": "900 mg/kg, dose level High", "value": 67.33, "unit": "fL"}, {"measurement": "MONOCYTE", "setting": "900 mg/kg, dose level High", "value": 1.67, "unit": "%"}, {"measurement": "NEUTROPHIL", "setting": "900 mg/kg, dose level High", "value": 13.93, "unit": "%"}, {"measurement": "PLATELET COUNT", "setting": "900 mg/kg, dose level High", "value": 1227, "unit": "x10E3/uL"}, {"measurement": "ALANINE AMINOTRANSFERASE", "setting": "900 mg/kg, dose level High", "value": 45.33, "unit": "u/L"}, {"measurement": "ALBUMIN", "setting": "900 mg/kg, dose level High", "value": 3.87, "unit": "G/DL"}, {"measurement": "ALKALINE PHOSPHATASE", "setting": "900 mg/kg, dose level High", "value": 421.33, "unit": "u/L"}, {"measurement": "ASPARTATE AMINOTRANSFERASE", "setting": "900 mg/kg, dose level High", "value": 99.33, "unit": "u/L"}, {"measurement": "BLOOD UREA NITROGEN", "setting": "900 mg/kg, dose level High", "value": 12.67, "unit": "mg/dL"}, {"measurement": "CARBON DIOXIDE", "setting": "900 mg/kg, dose level High", "value": 34.67, "unit": "mmol/L"}, {"measurement": "CHLORIDE", "setting": "900 mg/kg, dose level High", "value": 103, "unit": "MEQ/L"}, {"measurement": "CHOLESTEROL", "setting": "900 mg/kg, dose level High", "value": 65.67, "unit": "mg/dL"}, {"measurement": "CREATINE PHOSPHOKINASE", "setting": "900 mg/kg, dose level High", "value": 827.67, "unit": "u/L"}, {"measurement": "CREATININE", "setting": "900 mg/kg, dose level High", "value": 0.5, "unit": "mg/dL"}, {"measurement": "GLUCOSE", "setting": "900 mg/kg, dose level High", "value": 188.67, "unit": "mg/dL"}, {"measurement": "LACTATE DEHYDROGENASE", "setting": "900 mg/kg, dose level High", "value": 235.33, "unit": "u/L"}, {"measurement": "LIPASE", "setting": "900 mg/kg, dose level High", "value": 15.67, "unit": "u/L"}, {"measurement": "PHOSPHORUS", "setting": "900 mg/kg, dose level High", "value": 13.87, "unit": "mg/dL"}, {"measurement": "POTASSIUM", "setting": "900 mg/kg, dose level High", "value": 6, "unit": "MEQ/L"}, {"measurement": "SODIUM", "setting": "900 mg/kg, dose level High", "value": 142.67, "unit": "MEQ/L"}, {"measurement": "TOTAL BILIRUBIN", "setting": "900 mg/kg, dose level High", "value": 0.8, "unit": "mg/dL"}, {"measurement": "TOTAL PROTEIN", "setting": "900 mg/kg, dose level High", "value": 6.33, "unit": "G/DL"}, {"measurement": "URIC ACID", "setting": "900 mg/kg, dose level High", "value": 0.7, "unit": "mg/dL"}]}]}
